Assays:
Type in all cases: biochemical
CDK1/CyclinB1 [1] = target: T1, CDK1/CyclinB1 (Homo sapiens, UniProt P06493); test: CDK1/CyclinB1 ChEF Assay (Table A); conditions: read-out: CDK1/CCNB1 ChEF Ki: Average Ki;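 also: Ki reported in nM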
T1 construct: Wild-type, full length CDK1 in complex with wildtype, full length CyclinB1: Carna Cat #04-102; purchased Carna 04-102
Method: 500 nL of 50× compound in 100% DMSO is added to a 384-well low volume, white assay plate. 19.5 μL of 1.3×CDK1/CyclinB1 (Wild-type, full length CDK1 in complex with wildtype, full length CyclinB1: Carna Cat #04-102) diluted in assay buffer (50 mM Hepes, 0.01% Brij-35, 10 mM MgCl2, 0.5 mM EGTA, 1% Glycerol, and 1.2 mM DTT) is added to the plates on top of the compound and pre-incubated for 30 minutes at room temperature. Following the incubation, 5 μL of 5×Sox-chromophore (CSox) labeled peptide substrate (AQT0297, AssayQuant) & ATP diluted in assay buffer is added to the plate to initiate the reaction. The assay is incubated at room temperature for 30 min after initiation. The CSox peptide substrate is phosphorylated by CDK1/B1 upon ATP hydrolysis.
The fluorescent intensity measurement of the assay plate for all assays described above is read on a microplate reader once the assay is initiated and again at the completion of the assay. Phosphorylation of the CSox-based peptide substrate sensor results in an immediate increase in fluorescence. These raw fluorescence intensity values are normalized to calculate percent inhibition, which are fit to a four-parameter logistic curve and IC50 values are calculated. IC50 values are converted to Ki using substrate, KM^app values, and the Cheng-Prusoff equation.

CDK1/CyclinB1 [2] = target: T1, CDK1/CyclinB1; test: CDK1/Cyclin B1 Mobility Shift Assay (Caliper, Table B); conditions: read-out: CDK1/CCNB1 Caliper Ki: Average Ki
Method: 10 nL of 2000× compound in 100% DMSO is added to a 384-well polypropylene assay plate. 15 μL of 1.3×CDK1/B1 and 1.3× fluorescent substrate (Wild-type, full length CDK1 in complex with wildtype, full length CyclinB1: Carna Cat #04-102 and FL-Peptide 29: PerkinElmer Cat #760429) diluted in kinase buffer (50 mM Hepes, 0.01% Brij-35, 10 mM MgCl2, 1 mM EGTA, 0.05% BSA, and 2 mM DTT) is added to the plates on top of the compound, mixed, and pre-incubated for 30 minutes at room temperature. The fluorescently labeled peptide substrate is phosphorylated by CDK1/B1 upon ATP hydrolysis. Following the incubation, 5 μL of 4×ATP diluted in kinase buffer is added to the plate to initiate the reaction. Following the 30-minute incubation, the reaction is stopped by adding 75 μL of stopping buffer containing 0.5 M EDTA.
(§1) The assay plate is then read on a Lab Chip EZ Reader which separates the fluorescently labeled substrate and product peptides through a mobility difference. The phosphorylation of the substrate imparts a negative charge, which allows differences in separation as both are pulled through the microfluidic chip. The ratio of substrate and product values are used to generate percent conversion. These raw percent conversion values are normalized to calculate percent inhibition, which are fit to a four-parameter logistic curve and IC50 values are calculated. IC50 values are converted to Ki using substrate, Kmapp values, and the Cheng-Prusoff equation.

CDK2/CyclinA2 = target: T2, CDK2/CyclinA2 (Homo sapiens, UniProt P24941); test: CDK2/Cyclin A2 Mobility Shift Assay (Caliper, Table B); conditions: for Ki: Caliper mobility shift, 10xKm, read-out: CDK2/CCNA2 Caliper 10xKm Ki: Average Ki
T2 construct: Wild-type, full length CDK2 in complex with wildtype, full length CyclinA2: Carna Cat #04-103; purchased Carna 04-103
Method: 10 nL of 2000× compound in 100% DMSO is added to a 384-well polypropylene assay plate. 15 μL of 1.3×CDK2/A2 and 1.3× fluorescent substrate (Wild-type, full length CDK2 in complex with wildtype, full length CyclinA2: Carna Cat #04-103 and FL-Peptide 18: PerkinElmer Cat #760362) diluted in kinase buffer (50 mM Hepes, 0.01% Brij-35, 10 mM MgCl2, 1 mM EGTA, 0.05% BSA, and 2 mM DTT) is added to the plates on top of the compound, mixed, and pre-incubated for 30 minutes at room temperature. The fluorescently labeled peptide substrate is phosphorylated by CDK2/A2 upon ATP hydrolysis. Following the incubation, 5 μL of 4×ATP diluted in kinase buffer is added to the plate to initiate the reaction. Following the 30-minute incubation, the reaction is stopped by adding 75 μL of stopping buffer containing 0.5 M EDTA.
as §1, with “Ki through” for “Ki”, “substrate and Km^app” for “substrate, Kmapp”

CDK9/CyclinT1 = CDK9/CyclinT1 (Homo sapiens, UniProt P50750); test: CDK9/CyclinT1 Mobility Shift Assay (Caliper, Table B); set-up: Wild-type, full length CDK9 in complex with wildtype, CyclinT1 (1-259): Biortus Cat #BP480/792/691; purchased Biortus BP480/792/691; conditions: read-out: CDK9/Cyclin T1 Caliper Ki: Average Ki
Chain of CDK9/CyclinT1 (P50750 whole entry): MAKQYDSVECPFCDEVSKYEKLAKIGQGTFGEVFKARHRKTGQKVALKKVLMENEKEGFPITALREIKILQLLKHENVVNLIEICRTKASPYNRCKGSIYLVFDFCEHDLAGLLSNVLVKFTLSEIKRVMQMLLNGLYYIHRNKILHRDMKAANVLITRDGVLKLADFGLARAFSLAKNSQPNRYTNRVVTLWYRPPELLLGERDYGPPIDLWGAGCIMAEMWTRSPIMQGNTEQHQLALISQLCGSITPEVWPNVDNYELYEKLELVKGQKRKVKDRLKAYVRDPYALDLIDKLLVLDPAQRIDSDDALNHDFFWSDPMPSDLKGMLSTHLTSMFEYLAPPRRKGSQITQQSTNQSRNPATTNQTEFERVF
Chain of CDK9/CyclinT1 (O60563 1-259 partner limits assumed): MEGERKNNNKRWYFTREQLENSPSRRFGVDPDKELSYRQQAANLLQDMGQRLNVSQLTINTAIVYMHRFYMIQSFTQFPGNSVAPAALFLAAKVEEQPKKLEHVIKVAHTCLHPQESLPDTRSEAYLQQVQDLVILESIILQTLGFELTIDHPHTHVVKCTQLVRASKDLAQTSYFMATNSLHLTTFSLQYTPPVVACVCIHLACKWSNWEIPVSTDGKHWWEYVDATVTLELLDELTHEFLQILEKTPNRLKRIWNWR
How it was run: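 Full-length wild-type CDK9 with CyclinT1 (1-259) and fluorescent peptide substrate, pre-incubated with compound 30 min at room temperature in Hepes/Brij-35/MgCl2/EGTA/BSA/DTT buffer; ATP added, 30 min reaction, EDTA stop. Substrate/product separated by microfluidic mobility shift; percent inhibition fit to four-parameter curve, IC50 converted to Ki by Cheng-Prusoff using Kmapp.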

T1 sequence (P06493 whole entry): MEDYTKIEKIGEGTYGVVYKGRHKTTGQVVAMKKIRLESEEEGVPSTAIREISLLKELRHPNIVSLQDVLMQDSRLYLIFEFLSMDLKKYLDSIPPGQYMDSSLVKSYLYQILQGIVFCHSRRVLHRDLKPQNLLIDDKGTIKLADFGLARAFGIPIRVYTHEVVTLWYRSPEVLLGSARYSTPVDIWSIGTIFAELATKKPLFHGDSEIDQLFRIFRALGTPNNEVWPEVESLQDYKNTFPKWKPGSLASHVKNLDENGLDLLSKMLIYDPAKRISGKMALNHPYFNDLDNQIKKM
T1 sequence (P14635 whole entry partner): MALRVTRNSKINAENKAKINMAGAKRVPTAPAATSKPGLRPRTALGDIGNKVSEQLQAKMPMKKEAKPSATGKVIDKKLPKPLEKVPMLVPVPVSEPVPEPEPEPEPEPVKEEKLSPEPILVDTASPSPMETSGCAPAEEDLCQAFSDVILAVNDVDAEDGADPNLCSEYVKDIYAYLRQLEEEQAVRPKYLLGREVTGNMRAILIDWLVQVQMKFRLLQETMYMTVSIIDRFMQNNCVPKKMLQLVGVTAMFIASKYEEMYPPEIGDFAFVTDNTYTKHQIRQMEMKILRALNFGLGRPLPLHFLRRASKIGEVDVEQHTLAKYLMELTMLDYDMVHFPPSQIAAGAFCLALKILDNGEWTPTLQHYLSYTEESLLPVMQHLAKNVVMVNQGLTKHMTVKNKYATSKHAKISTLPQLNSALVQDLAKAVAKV

Row | SMILES | Ki (CDK1/CyclinB1 [1]) | Ki (CDK1/CyclinB1 [2]) | Ki (CDK2/CyclinA2) | CDK2/CCNA2 Caliper 10xKm Ki: CDK2/A2 Selectivity over CDK1/B1 (CDK2/CyclinA2; Caliper) | CDK2/CCNA2 Caliper 10xKm Ki: CDK2/A2 Selectivity over CDK9 (CDK2/CyclinA2; Caliper) | Ki (CDK9/CyclinT1) | CDK2/CCNA2 Caliper 10xKm Ki: CDK2/A2 Selectivity over CDK6/D3 (CDK2/CyclinA2; Caliper, selectivity over CDK6/D3)
1 | CN1CCNC(=O)O[C@@H]2CC[C@@H](C2)c2cc(n[nH]2)Nc2ccc(cc2F)S(=O)(=O)NCC1 [Compound 100, (1^1S, 1^3R,Z)-4^2-fluoro-9-methyl-2^1H-14-oxa-5-thia-3,6,9,12-tetraaza-2(5,3)-pyrazola-4(1,4)-benzena-1(1,3)-cyclopentanacyclotetradecaphan-13-one 5,5-dioxide] | 25 to 100 nM | ≥ 100 nM | 1 to 25 nM | A (A>10) | A (A>10) | ≥ 100 nM | 
2 | CC1(C)CCCNS(=O)(=O)c2ccc(c(F)c2)Nc2cc([nH]n2)[C@H]2CC[C@H](C2)OC(=O)N1 [Compound 101, (1^1S,1^3R,Z)-4^2-fluoro-10,10-dimethyl-2^1H-13-oxa-5-thia-3,6,11-triaza-2(5,3)-pyrazola-4(1,4)-benzena-1(1,3)-cyclopentanacyclotridecaphan-12-one 5,5-dioxide] | 25 to 100 nM | ≥ 100 nM | 1 to 25 nM | A (A>10) | A (A>10) | ≥ 100 nM | 
3 | O=C1NCC=CCNS(=O)(=O)c2ccc(c(F)c2)Nc2cc([nH]n2)[C@H]2CC[C@H](C2)O1 [Compound 102, (1^1S,1^3R,2^4Z)-4^2-fluoro-2^1H-13-oxa-5-thia-3,6,11-triaza-2(5,3)-pyrazola-4(1,4)-benzena-1(1,3)-cyclopentanacyclotridecaphan-8-en-12-one 5,5-dioxide] | 1 to 25 nM | 25 to 100 nM | < 1 nM | A (A>10) | A (A>10) | ≥ 100 nM | A (A>10)
